# Patent US20200390755A1, “COMPOUND FOR TREATING NERVOUS SYSTEM DISEASES AND USE THEREOF” (SHAANXI MICOT TECHNOLOGY CO., LTD., priority 2018, published 2020)
# Tested on: WT mice
# Assay: Slope balance beam experiment, WT mice
# Type: in vivo, mouse
# Conditions: 5 mg/kg/d intragastric
# Procedure: 7-week-old N171-82Q HD male mice were paired with female B6C3F1/J hybrid mice to obtain newborn mice. From 21 days of age, male mice were housed in separate cages. 0.5 cm of mouse tail tissue was removed to extract DNA to determine the genotype of the mouse, such that N171-82Q HD mice and WT mice needed for the experiment were obtained. The mice were randomly divided into WT Vehicle group (normal mice), WT test compound group (administration group of normal mice, 5 mg/kg/d, n=10), HD Vehicle group (blank group of HD mice, n=15), HD test compound group (administration groups 1-5 of HD mice, 5 mg/kg/d, n=10). The test compound was suspended in 1% CMC-Na solution and administered by intragastric administration until the end of the study. The weights of the mice were measured every week. Behavioral tests were performed at 12 weeks, 18 weeks, and 24 weeks of age to investigate motor function. At 20 weeks, 3 samples of tissue from each group were used for western blotting and immunohistochemistry. At 24 weeks, MRI scans were performed. At the end of the study, the effect of the test compound on the mortality of mice was evaluated. The software Sigmaplot 13.0 was used for statistical analysis of the data, and the data of each group was expressed as mean standard error (x±SEM). Behavioral test results were analyzed using two-way (genotype and processing factor) ANOVA and post-ho tests, the comparison and statistics of weight data were performed using two-way (genotype and age) ANOVA of repeated measures, and mortality was counted using Kaplan-Meier method. Other measurement data were analyzed by one-way ANOVA. P<0.05 was considered statistically significant. The motor function of mice was evaluated by the rotarod experiment and three types of balance beam experiments. The shorter the time for mouse to cross the balance beam, and the longer the time to drop, the stronger the coordination ability of the mouse. […] If the time for crossing the beams was greater than 60 seconds, it was recorded as 60 seconds.
smiles,measurement,setting,value
"O=c1cc(-c2ccc(N3CCCCC3)cc2)oc2c(O)c(O)ccc12 [Example 1, 7,8-dihydroxy-2-(4-(piperidin-1-yl)phenyl)-4H-chromen-4-one]","Time for crossing the beams, slope balance beam",12 w,18.82 ± 28.33 s
same,"Time for crossing the beams, slope balance beam",18 w,12.45 ± 6.23 s
same,"Time for crossing the beams, slope balance beam",24 w,15.50 ± 6.11 s
